Test results reported in patent US20210113659A1, “ENGINEERED THERAPEUTIC TO ENHANCE CYTOTOXIC ACTIVITY AND PHAGOCYTOSIS IN TUMOR ASSOCIATED MACROPHAGES” (University of Massachusetts, priority 2019, published 2021).

System: 4T1 cells or B16 F10 cells
Experiment: Cytotoxic efficacy using MTS assay
Type: cell-based
Conditions: lower concentrations, 72 h
Description: Cytotoxic Efficacy of DNTs Using MTS Assay: 5×10^3 4T1 cells or B16 F10 cells per well were seeded in a 96 well plate and left overnight to adhere. The cells were serum starved for 6 h by incubating them in serum free basal medium. The cells were incubated with either free drugs or DNTs of equivalent free drug concentrations for 72 h. The cells were washed with PBS and the medium was replaced with phenol red free DMEM followed by incubation in a mixture of MTS and PMS (1:20) solution for 30 min. Absorbance was measured at 480 nm using a BioTek plate reader. The data was analyzed using graph pad.

CC1(N)CCN(c2cnc(-c3cccc(Cl)c3Cl)c(N)n2)CC1.Cl.Cl [SHP099, 6-(4-Amino-4-methylpiperidin-1-yl)-3-(2,3-dichlorophenyl)pyrazin-2-amine dihydrochloride]
effect on the viability of cancer cells: did not have a significant effect
